pIC50: −log10 of the molar value.
Assays:
total ATXN3 protein = experiment: ATXN3 total protein assay (MSD); assay type: cell-based; conditions: Homo sapiens, SK-N-MC cells, 48 h incubation
Protocol: Human neuroblastoma SK-N-MC cells were seeded at 10,000 cells/well in 384 well plates one day prior to compound treatment. The concentrations of compounds were tested at appropriate doses ranging from 30 μM to 0.6 nM. After incubation for 48 hours, the cells were lysed with 25 μL of lysis buffer containing protease inhibitors, and total ATXN3 protein levels were assessed by Mesoscale Discovery (MSD) assay developed with one pair of anti-ATXN3 antibodies. The capture and detect antibodies were raised in mouse and rabbit respectively. Anti-rabbit MSD-ST antibody was used for secondary antibody.
ATXN3 recombinant protein was used for standards. The readouts were captured with 35 μL of MSD read buffer and multi-array 384-well high binding plates.

[1] = test system: ATXN3 transcripts containing exon 4 (E4E5); experiment: ATXN3 quantitative splicing assay (qPCR, E4E5 primers/probe); assay type: cell-based; conditions: Homo sapiens; SK-N-MC cells, 24 h treatment, qPCR of exon 4 containing transcripts
Protocol: Human neuroblastoma SK-N-MC cells were plated in 384-well plates at 20,000 cells/well. Twenty-four hours after plating, cells were treated with compounds for 24 h at appropriate concentrations ranging from 30 μM to 0.6 nM (0.300 DMSO). Treated cells were lysed in 15 μL of lysis buffer, and cDNA was synthesized using the Fast Advanced Cells-to-Ct kit. Two μL of each cDNA was used in qPCR reactions to confirm the exon 4 skipped transcripts of ATXN3. A second set of primers/probe E4E5 was used to detect the transcripts containing exon 4. The third set of primers/probe E8E9 was used to detect total gene level of ATXN3. The qPCR reactions were prepared in 384-well plates in 10 μL volume, using TaqMan™ Fast Advanced Master Mix with primers and probes shown in the table below. Reactions were run in a Quant Studio 6 qPCR instrument with default settings.
The primers and probes are listed below in Table 5.

SMILES	pIC50 (total ATXN3 protein)	pIC50 [1]
CC#Cc1c(C[C@H](C)N)sc2c(NCc3cccs3)snc12 [Compound 1, 7-[(S)-2-aminopropyl]-8-(1-propynyl)-4-thenylamino-3,6-dithia-2-azabicyclo[3.3.0]octa-1,4,7-triene]	6.30 to 7.00	6.30 to 7.00
C[C@H](N)Cc1sc2c(NCc3cccs3)snc2c1C#Cc1ccccc1 [Compound 2, 7-[(S)-2-aminopropyl]-8-(2-phenylethynyl)-4-thenylamino-3,6-dithia-2-azabicyclo[3.3.0]octa-1,4,7-triene]	5.30 to 6.30	5.00 to 5.30
CC(C)C#Cc1c(C[C@H](C)N)sc2c(NCc3cccs3)snc12 [Compound 4, 7-[(S)-2-aminopropyl]-8-(3-methyl-1-butynyl)-4-thenylamino-3,6-dithia-2-azabicyclo[3.3.0]octa-1,4,7-triene]	5.00 to 5.30	5.00 to 5.30
CC(C)C#Cc1c(C[C@H](C)N)sc2c(NCc3ccco3)snc12 [Compound 5, 7-[(S)-2-aminopropyl]-4-(furfurylamino)-8-(3-methyl-1-butynyl)-3,6-dithia-2-azabicyclo[3.3.0]octa-1,4,7-triene]	5.30 to 6.30	5.30 to 6.30
C[C@H](N)Cc1sc2c(NCc3cccs3)snc2c1C#CC1CC1 [Compound 6, 7-[(S)-2-aminopropyl]-8-(2-cyclopropylethynyl)-4-thenylamino-3,6-dithia-2-azabicyclo[3.3.0]octa-1,4,7-triene]	5.30 to 6.30	6.30 to 7.00
C[C@H](N)Cc1sc2c(NCc3ccco3)snc2c1C#CC1CC1 [Compound 7, 7-[(S)-2-aminopropyl]-8-(2-cyclopropylethynyl)-4-(furfurylamino)-3,6-dithia-2-azabicyclo[3.3.0]octa-1,4,7-triene]	5.30 to 6.30	6.30 to 7.00
CC#Cc1c(C[C@H](C)N)sc2c(NCc3ccco3)snc12 [Compound 10, 7-[(S)-2-aminopropyl]-4-(furfurylamino)-8-(1-propynyl)-3,6-dithia-2-azabicyclo[3.3.0]octa-1,4,7-triene]	6.30 to 7.00	6.30 to 7.00
COCC#Cc1c(C[C@H](C)N)sc2c(NCc3ccco3)snc12 [Compound 11, 7-[(S)-2-aminopropyl]-4-(furfurylamino)-8-(3-methoxy-1-propynyl)-3,6-dithia-2-azabicyclo[3.3.0]octa-1,4,7-triene]	5.30 to 6.30	5.30 to 6.30
COCC#Cc1c(C[C@H](C)N)sc2c(NCc3cccs3)snc12 [Compound 15, 7-[(S)-2-aminopropyl]-8-(3-methoxy-1-propynyl)-4-thenylamino-3,6-dithia-2-azabicyclo[3.3.0]octa-1,4,7-triene]	4.40 to 5.00	4.40 to 5.00
CCC#Cc1c(C[C@H](C)N)sc2c(NCc3cccs3)snc12 [Compound 16, 7-[(S)-2-aminopropyl]-8-(1-butynyl)-4-thenylamino-3,6-dithia-2-azabicyclo[3.3.0]octa-1,4,7-triene]	5.30 to 6.30	5.30 to 6.30
C[C@H](N)Cc1sc2c(NCc3cccs3)snc2c1C#CCF [Compound 17, 7-[(S)-2-aminopropyl]-8-(3-fluoro-1-propynyl)-4-thenylamino-3,6-dithia-2-azabicyclo[3.3.0]octa-1,4,7-triene]	5.30 to 6.30	6.30 to 7.00
C[C@H](N)Cc1sc2c(NCc3cccs3)snc2c1C#CCO [Compound 27, 3-{7-[(S)-2-aminopropyl]-4-thenylamino-3,6-dithia-2-azabicyclo[3.3.0]octa-1,4,7-trien-8-yl}-2-propyn-1-ol]	5.30 to 6.30	5.30 to 6.30

Other lines, results leading:

pIC50 (total ATXN3 protein)	pIC50 [1]	SMILES
6.30 to 7.00	7.00 to 11.00	CC#Cc1c(C[C@@H](N)CO)sc2c(NCc3cccs3)snc12 [Compound 8, (R)-2-amino-3-{8-(1-propynyl)-4-thenylamino-3,6-dithia-2-azabicyclo[3.3.0]octa-1,4,7-trien-7-yl}-1-propanol]
7.00 to 11.00	7.00 to 11.00	CC#Cc1c(C[C@@H](N)CO)sc2c(NCc3ccco3)snc12 [Compound 9, (R)-2-amino-3-{4-(furfurylamino)-8-(1-propynyl)-3,6-dithia-2-azabicyclo[3.3.0]octa-1,4,7-trien-7-yl}-1-propanol]
6.30 to 7.00	6.30 to 7.00	CCC#Cc1c(C[C@@H](N)[C@H](C)F)sc2c(NCc3cccs3)snc12 [Compound 20, 7-[(2R,3S)-2-amino-3-fluorobutyl]-8-(1-butynyl)-4-thenylamino-3,6-dithia-2-azabicyclo[3.3.0]octa-1,4,7-triene]
5.30 to 6.30	5.30 to 6.30	CC#Cc1c(C[C@@H](N)[C@H](C)F)sc2c(NCc3ccccc3)snc12 [Compound 21, 7-[(2R,3S)-2-amino-3-fluorobutyl]-4-benzylamino-8-(1-propynyl)-3,6-dithia-2-azabicyclo[3.3.0]octa-1,4,7-triene]
7.00 to 11.00	7.00 to 11.00	CC#Cc1c(C[C@@H](N)[C@H](C)F)sc2c(NCc3ccco3)snc12 [Compound 22, 7-[(2R,3S)-2-amino-3-fluorobutyl]-4-(furfurylamino)-8-(1-propynyl)-3,6-dithia-2-azabicyclo[3.3.0]octa-1,4,7-triene]
6.30 to 7.00	6.30 to 7.00	CC#Cc1c(C[C@@H](N)[C@H](C)F)sc2c(NCc3cccs3)snc12 [Compound 23, 7-[(2R,3S)-2-amino-3-fluorobutyl]-8-(1-propynyl)-4-thenylamino-3,6-dithia-2-azabicyclo[3.3.0]octa-1,4,7-triene]
5.00 to 5.30	4.40 to 5.00	CC#Cc1c(C[C@@H](N)COC)sc2c(NCc3ccccc3)snc12 [Compound 24, 7-[(R)-2-amino-3-methoxypropyl]-4-benzylamino-8-(1-propynyl)-3,6-dithia-2-azabicyclo[3.3.0]octa-1,4,7-triene]
5.30 to 6.30	6.30 to 7.00	CC#Cc1c(C[C@@H](N)COC)sc2c(NCc3ccco3)snc12 [Compound 25, 7-[(R)-2-amino-3-methoxypropyl]-4-(furfurylamino)-8-(1-propynyl)-3,6-dithia-2-azabicyclo[3.3.0]octa-1,4,7-triene]
5.30 to 6.30	5.30 to 6.30	CC#Cc1c(C[C@@H](N)COC)sc2c(NCc3cccs3)snc12 [Compound 26, 7-[(R)-2-amino-3-methoxypropyl]-8-(1-propynyl)-4-thenylamino-3,6-dithia-2-azabicyclo[3.3.0]octa-1,4,7-triene]
5.30 to 6.30	5.30 to 6.30	CC#Cc1c(C(F)(F)[C@H](C)N)sc2c(NCc3cccs3)snc12 [Compound 28, 7-[(S)-2-amino-1,1-difluoropropyl]-8-(1-propynyl)-4-thenylamino-3,6-dithia-2-azabicyclo[3.3.0]octa-1,4,7-triene]
5.30 to 6.30	5.30 to 6.30	CC#Cc1c(C[C@@H](N)CC2CC2)sc2c(NCc3cccs3)snc12 [Compound 29, 7-[(S)-2-amino-3-cyclopropylpropyl]-8-(1-propynyl)-4-thenylamino-3,6-dithia-2-azabicyclo[3.3.0]octa-1,4,7-triene]
6.30 to 7.00	6.30 to 7.00	CC#Cc1c(C[C@@H](N)CC2CC2)sc2c(NCc3ccco3)snc12 [Compound 30, 7-[(S)-2-amino-3-cyclopropylpropyl]-4-(furfurylamino)-8-(1-propynyl)-3,6-dithia-2-azabicyclo[3.3.0]octa-1,4,7-triene]
5.30 to 6.30	5.30 to 6.30	CC#Cc1c(C[C@@H](N)C(F)F)sc2c(NCc3ccco3)snc12 [Compound 36, 7-[(R)-2-amino-3,3-difluoropropyl]-4-(furfurylamino)-8-(1-propynyl)-3,6-dithia-2-azabicyclo[3.3.0]octa-1,4,7-triene]
5.00 to 5.30	5.30 to 6.30	CC#Cc1c(C[C@@H](N)C(F)F)sc2c(NCc3cccs3)snc12 [Compound 37, 7-[(R)-2-amino-3,3-difluoropropyl]-8-(1-propynyl)-4-thenylamino-3,6-dithia-2-azabicyclo[3.3.0]octa-1,4,7-triene]
